The values below come from US20030039661A1, “Methods, compositions and kits for preserving antigenicity” (priority 2001, published 2003).

pIC50: −log10 of the molar value. Peptide text beside a SMILES is read from it. * marks the point of attachment. Cbz = O=C(OCc1ccccc1)*; CH2F = FC*

One series concerns mammary epithelial cells. Conditions: in the absence of extracellular matrix; cited from earlier work.
Series [1] deals with granulocytes. In words: Respiratory burst in isolated neutrophils measured by chemiluminescence (opsonized zymosan). It counts as cell-based. The conditions noted are these: FIG. 7. The method, then: Respiratory Burst in Isolated Neutrophils Measured by Chemiluminescence
Whole blood anticoagulated with Acid Citrate Dextrose (ACD) with a ratio of 1:5 ACD to blood was collected (150 ml).
Neutrophils were isolated as described above.
Opsonized zymosan was prepared by suspending 125 mg zymosan particles in 25 ml pooled human serum (5 mg/ml) and incubating them for 20 minutes at 37° C. Centrifuge the suspension and resuspend the particles in 7 ml of PBS (18 mg/ml) and stored on ice until use (vortex prior to pipetting).
50 ml of a 250 μM solution of Lucigenin (MW 510.5) was prepared by dissolving 6.4 mg of the solid in 50 ml of PBS-G (+Ca, Mg). 10 μl of PBS-G (+Ca, Mg) to the wells in a white 96 well plate.
50 μl of the 250 μM Lucigenin solution was added to the wells in a white 96 well plate.
Cell preparations were obtained from cell culture (concentration at time zero=5.0×10^6 cells/ml) with PBS-G (+Ca, Mg).
20 μl of the neutrophil suspension was suspended to the appropriate wells and the plate was incubated at 37° C. for three minutes. 10 μl of the opsonized zymosan was added to the wells.
The plate was read on the luminometer (Labsystems Luminoskan, Needham Heights, Mass.) for 14 min. at 37° C. in the kinetic mode and record results using the software DeltaSoft.
The ability to undergo the respiratory burst is another measure of granulocyte viability. The respiratory burst is a physiological response of granulocytes to foreign stimuli such as bacteria. In this example, the method for inducing the respiratory burst utilized opsonized bacterial zymosan. The respiratory burst was measured via chemiluminescence.

The subject of series [2] is granulocytes in whole blood. Put plainly: Whole blood assay: survival of granulocytes in whole blood by hypodiploid analysis. The format is cell-based. The method, then: The following protocol was followed:
200 μl blood sample/2.8 ml 1× lysis solution in a 15 ml polypropylene conical tube.
Add 20 μl/sample anti-CD32-FITC. Incubate 30 minutes on ice in the dark.
Add 3 ml/sample ice-cold 95% EtOH dropwise while vortexing gently.
Resuspend each sample in 50 μl 5 mg/ml RN'ase. Transfer sample to 900 μl/sample.
50 μg/ml Propidium Iodide in 12×75 mm Falcon polystyrene tubes.
Analyze samples by flow cytometry (argon laser) for forward and side scatter and fluorescence.
Survival of granulocytes in whole blood was measured by hypodiploid analysis in a similar fashion to isolated granulocytes via flow cytometry. ICE/ced-3 inhibitors of the present invention maintained survival of granulocytes in whole blood for 96 hours at room temperature as indicated in the table below: […]

Series [3] has as its system granulocytes. Put plainly: Granulocyte survival, hypodiploid nuclei by propidium iodide flow cytometry (isolated granulocytes in culture). The format is cell-based. The conditions noted are these: FIG. 6; for pIC50: isolated granulocytes cultured at 37° C., read-out: IC50 for granulocyte survival (hypodiploid DNA). The method, then:
Neutrophil Culture Conditions:
The culture media was as follows: (RPMI 1640; 10% FBS; 10 mM Hepes; 0.2 mM L-glutamine; 25 U/ml penicillin; and […] streptomycin).
Purified neutrophil maintenance was performed under the following conditions: (5×10^6 cells/ml in above culture media; Polystyrene round-bottom 96-well plates; 250 μl/well; and 37° C., 5% CO2/95% air humidified incubator) (Liles et al., Blood 119 (1995) 3181-3188).
Analysis of Hypodiploid Nuclei by Flow Cytometry:
(50 μg/ml propidium iodide (Sigma catalog#P4170); 0.1% Triton X-100; and 0.1 sodium citrate).
Neutrophils were pelleted at 4° C. and the supernate aspirated.
Neutrophils were resuspended in hypotonic fluorochrome solution at a density of 5×10^6 cells/ml. Propidium iodide fluorescence of individual nuclei was evaluated in FL2 and measured on a logarithmic scale while gating on physical parameters in forward and side scatter to exlude cell debris.
At least 10,000 events per sample were collected and the results were evaluated relative to a non-apoptotic neutrophil population. (Liles et al., Blood 119 (1995) 3181-3188).
The present invention provides methods to enhance the ex vivo survival of neutrophils/granulocytes. To establish the ability of compounds to preserve granulocytes in culture, compounds were tested in a number of in vitro assays. One common model to test for effects on granulocyte survival involves separating granulocytes from fresh whole blood, culturing the cells at 37° C. and testing cells for nuclear hypodiploidy at 24 hour intervals (as described in Example 110). The presence of hypodiploid DNA is a measure of apoptosis, and is assessed using a propidium iodide stain via flow cytometry. Compounds of the present invention were incubated with the granulocytes in culture, their effects on granulocyte survival measured, and an IC50 calculated.
A general note: In flow cytometry, cells or beads pass a laser one at a time.

The next series relates to T-lymphocyte cell line. The conditions noted are these: cited from earlier work.
In a further series the test system is motoneurons. Conditions: in vitro and in vivo; cited from earlier work.
[4] abbreviates: after granulocyte culture for 72 hours.
The mark [5] stands for this setting: granulocyte culture for 48 hours.

On to `CC(C)(C)OC(=O)N[C@@H](CC(=O)OCc1ccccc1)C(=O)CCl` [Boc-D-(benzyl) chloromethylketone], for which the “cell death of mammary epithelial cells” value in the series with mammary epithelial cells was “prevented”. With `Cc1c(C(=O)N[C@H](C(=O)NC(CC(=O)O)C(=O)CF)C(C)C)n(C)c2ccccc12` (some centres unmarked) [Example 43, N-[(1.3-dimethylindole-2-carbonyl)valinyl]-3-amino-4-oxo-5-fluoropentanoic Acid], the “maintenance of the respiratory burst” value in the series with granulocytes [1] (setting [4]) is listed as “partially maintained”; in the series with granulocytes [1] (setting [5]) it was “substantially maintained”. Besides, the “Percentage of diploid granulocytes in whole blood” value in series [2] (96 hours at room temperature) turned out to be 91%; in series [2] (time zero), 96%. In the case of `Cc1c(C(=O)N[C@H](C(=O)NC(CC(=O)O)C(=O)COC(=O)c2c(Cl)cccc2Cl)C(C)C)n(C)c2ccccc12` (some centres unmarked) [Example 70, N-[N-(1,3-dimethyl-indole-2-carbonyl)-valinyl]-3-amino-5-(2,6-dichlorobenzoyl)oxy-4-oxo-pentanoic Acid], the pIC50 with granulocytes [3] is more than 5.30. The “maintenance of the respiratory burst” value in the series with granulocytes [1] (setting [4]) is reported as “partially maintained”; in the series with granulocytes [1] (setting [5]), “substantially maintained”. The “Percentage of diploid granulocytes in whole blood” value in series [2] (96 hours at room temperature) is reported as 89%; in series [2] (time zero), 96%. For the molecule `O=C1C[C@H](NC(=O)[C@@H]2Cc3cccc4c3N2C(=O)[C@@H](NC(=O)OCc2ccccc2)CC4)C(O)O1` (some centres unmarked) [Example 78], the melting point fell in the range of 101 to 104 °C. Same read-out and setting: the figure for `CC(=O)N[C@@H](CC(=O)O)C(=O)N[C@H]1CCc2cccc3c2N(C1=O)[C@H](C(=O)N[C@H]1CC(=O)OC1O)C3` (some centres unmarked) [Example 82] is 160 to 175 °C (dec.); for `O=C(O)CCC(=O)N[C@H]1CCc2cccc3c2N(C1=O)[C@H](C(=O)N[C@H]1CC(=O)OC1O)C3` (some centres unmarked) [Example 85] it is 145 to 160 °C (dec.); for `O=C(O)C[C@H](NC(=O)OCc1ccccc1)C(=O)N[C@H]1CCc2cccc3c2N(C1=O)[C@H](C(=O)N[C@H]1CC(=O)OC1O)C3` (some centres unmarked) [Example 88] it is 140 to 144 °C (dec.).

As to `O=C(CCc1ccccc1)N[C@H]1CCc2cccc3c2N(C1=O)[C@H](C(=O)N[C@H]1CC(=O)OC1O)C3` (some centres unmarked) [Example 91], the melting point is 78 to 81 °C.

As for `CC(=O)N[C@H]1CCc2cccc3c2N(C1=O)[C@H](C(=O)N[C@H]1CC(=O)OC1O)C3` (some centres unmarked) [Example 94], the melting point was 210 to 215 °C (dec.). Still for that read-out and setting: for `O=C1C[C@H](NC(=O)[C@@H]2Cc3cccc4c3N2C(=O)[C@@H](NC(=O)c2cccc3ccccc23)CC4)C(O)O1` (some centres unmarked) [Example 97] the value was 202 to 203 °C (dec.); for `O=C1C[C@H](NC(=O)[C@@H]2Cc3cccc4c3N2C(=O)[C@@H](NC(=O)c2ccccc2)CC4)C(O)O1` (some centres unmarked) [Example 100], 204 to 205 °C (dec.).

For the molecule `O=C1C[C@H](NC(=O)C2CCc3cccc4c3N2C(=O)[C@@H](NC(=O)OCc2ccccc2)CC4)C(O)O1` (some centres unmarked) [Example 103], the melting point is 120 to 123 °C (dec.).

Turning to `O=C(O)CC(NC(=O)[C@@H]1Cc2cccc3c2N1C(=O)[C@@H](NC(=O)OCc1ccccc1)CC3)C(=O)CF` (some centres unmarked) [Example 106], in the series on granulocytes [3], the pIC50 is more than 5.30. `O=C(O)C[C@H](NC(=O)[C@@H]1Cc2cccc3c2N1C(=O)[C@@H](NC(=O)OCc1ccccc1)CC3)C(=O)COP(=O)(c1ccccc1)c1ccccc1` [Example 109, 3-[(2S-cis)-[5-benzyloxycarbonylamino-1,2,3,4,5,6,7-hexahydro-4-oxoazepino[3,2,1-hi]indole-2-carbonyl]amino]-5-(diphenylphosphinyl)oxy-4-oxo-pentanoic Acid]: the melting point was 109 to 111 °C (dec.). As to `CC(=O)N[C@@H](CC(=O)O)C(=O)N[C@@H](CCC(=O)O)C(=O)N[C@H](C(=O)N[C@H](C=O)CC(=O)O)C(C)C` [acetyl-DEVD-aldehyde], the anti-Fas induced apoptosis result in the series on T-lymphocyte cell line was “inhibited”.

In the case of `CC(=O)N[C@@H](Cc1ccc(O)cc1)C(=O)N[C@H](C(=O)N[C@@H](C)C(=O)N[C@@H](CC(=O)O)C(=O)CCl)C(C)C` [acetyl-YVAD-chloromethylketone], the death of motoneurons entry in the series on motoneurons was “blocked”. Consider `COC(=O)C[C@H](NC(=O)[C@H](C)NC(=O)[C@@H](NC(=O)OCc1ccccc1)C(C)C)C(=O)CF` [zVADfmk, reference compound] (Cbz-Val-Ala-Asp(OMe)-CH2F), for which the “effect on improving granulocyte survival” value in the series with granulocytes [3] (at 48 hours) is “weak effect”. In the series on granulocytes [1] (time not stated), the “maintenance of the respiratory burst” value is listed as “did not maintain”.

On to acetyl-AD-aldehyde, for which the death of motoneurons entry with motoneurons is “blocked”.

By pIC50 is commonly meant −log10 of the IC50, conventionally taken in molar units. For orientation: melting point means the temperature of the solid-liquid transition.
